Laboratory results: patent US9630952B2, “Crystalline forms of afatinib di-maleate” (IVAX INTERNATIONAL GMBH, priority 2014, dated 2017)

Key:
Assay type in all cases: physicochemical
[1] = competitive slurry experiment comparing thermodynamic stabilities of forms A and Alpha
Excerpt: As discussed above, crystalline form Alpha of Afatinib di-maleate has some advantages. […] Pharmaceutical molecules may display solid to solid phase transformations, transformations between polymorphs or between unsolvated and solvated form, which may be detected by competitive slurry experiments.

[2] = polymorphic stability under mechanical stress; details: exposed to mechanical stress (e.g. grinding, tabletting pressure); compared to Form A
Excerpt: As discussed above, crystalline form M of Afatinib di-maleate has advantages. […] As formulation processes often involve mechanical stress exerting technologies e.g. during grinding or under strong pressure in a tabletting machine, the polymorphic stability of API material is a desirable property.

wettability = details: compared to form A
Excerpt: As discussed above, crystalline form N of Afatinib di-maleate has some advantages. […] Wetting is the ability of a liquid (e.g. water) to maintain contact with a solid surface (e.g., API). It is a precursor to dissolution and so the wettability of a drug particle has a significant influence on the dissolution rates and the release characteristics in an oral pharmaceutical delivery. Wettability may also influence the interactions with other particles during formulation and manufacture. A polymorph with enhanced wettability ensures proper solubility measurement of the API per se and in formulation during dissolution experiments, i.e., better distribution of water and properly wetted sample.

Structure (SMILES): CN(C)C/C=C/C(=O)Nc1cc2c(Nc3ccc(F)c(Cl)c3)ncnc2cc1O[C@H]1CCOC1 [Form Alpha, Afatinib di-maleate]
- thermodynamic stability ([1]; concluded from competitive slurry in ethanol at room temperature, compared to form A): enhanced thermodynamic stability of form Alpha over form A
- solid form resulting from competitive slurry of forms A and Alpha ([1]; in ethanol at room temperature, after about 67 hours): pure form Alpha

Structure (SMILES): CN(C)C/C=C/C(=O)Nc1cc2c(Nc3ccc(F)c(Cl)c3)ncnc2cc1O[C@H]1CCOC1 [Form M, Afatinib di-maleate]
- polymorphic stability [2]: enhanced polymorphic stability compared to Form A

Structure (SMILES): CN(C)C/C=C/C(=O)Nc1cc2c(Nc3ccc(F)c(Cl)c3)ncnc2cc1O[C@H]1CCOC1 [Form N, Afatinib di-maleate]
- wettability (wettability): better wettability over form A
